Experimental data taken from ChEMBL document CHEMBL3817808, “Enlarging the chemical space of anti-leishmanials: a structureactivity relationship study of peptoids against Leishmania mexicana, a causative agent of cutaneous leishmaniasis” (Medchemcomm, 2016).

Legend:
[1] = Cytotoxicity against mouse RAW264.7 cells measured after 24 hrs by alamarBlue staining based fluorescence analysis; assay type: cell-based; settings: read-out: ED50
Leishmania mexicana [2] = assay: Antileishmanial activity against Leishmania mexicana MNYC/BZ/62/M379 promastigotes assessed as parasite viability measured after 1 hr by alamarBlue staining based fluorescence analysis; assay type: functional; settings: MNYC/BZ/62/M379, 1 h, read-out: ED50 (the source's name)
Leishmania mexicana [3] = assay: Antileishmanial activity against Leishmania mexicana MNYC/BZ/62/M379 amastigotes infected in mouse RAW264.7 cells assessed as parasite viability measured after 24 hrs by alamarBlue staining based fluorescence analysis; assay type: functional
Leishmania mexicana [4] = assay: Antileishmanial activity against axenic amastigote form of Leishmania mexicana MNYC/BZ/62/M379 assessed as parasite viability measured after 1 hr by alamarBlue staining based fluorescence analysis; assay type: functional; settings: MNYC/BZ/62/M379, 1 h, read-out: ED50 (the source's name)

SMILES: C[C@@H]1[C@H](O)[C@@H](C)/C=C/C=C/C=C/C=C/C=C/C=C/C=C/[C@H](O[C@@H]2O[C@H](C)[C@@H](O)[C@H](N)[C@@H]2O)C[C@@H]2O[C@](O)(C[C@@H](O)C[C@@H](O)[C@H](O)CC[C@@H](O)C[C@@H](O)CC(=O)O[C@H]1C)C[C@H](O)[C@H]2C(=O)O [AMPHOTERICIN B]
- CC50 at 24 h [1]: > 5000 nM
- EC50 (Leishmania mexicana [2]): < 2000 nM
- ED50 (Leishmania mexicana [3]): 195 nM
- EC50 (Leishmania mexicana [4]): < 2000 nM
